Measurements from article PMC10285738, “Identification of macrocyclic peptides which activate bacterial cylindrical proteases” (RSC Medicinal Chemistry, 2023).
Entries after “also recorded” stand apart in the source; their conditions may differ.

Assays:
[1] = target: T1, Sa.ClpP (Staphylococcus aureus, UniProt Q2G036); experiment: Dose-response of beta-casein degradation by Sa.ClpP; type: biochemical, S. aureus; settings: two-fold dilution series in DMSO, highest concentration 200 µM, densitometry, non-linear fit; three independent experiments; Fig. 4B; read-out: EC50 (effective dose), Sa.ClpP-dependent digestion of beta-casein
T1 construct: Strep-tag (C); made in house; host or cells: E. coli SG1146a (lacks endogenous ClpP)
T1 sequence (Q2G036 whole entry): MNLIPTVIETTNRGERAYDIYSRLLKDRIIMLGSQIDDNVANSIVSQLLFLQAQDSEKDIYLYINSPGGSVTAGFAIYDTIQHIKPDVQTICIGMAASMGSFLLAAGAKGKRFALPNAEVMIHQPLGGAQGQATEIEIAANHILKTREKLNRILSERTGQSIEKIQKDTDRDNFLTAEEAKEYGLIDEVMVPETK
Protocol: (§1) Beta-casein degradation by Ec.ClpP or Sa.ClpP
(§2) All concentrations are given as final concentrations. Ligands were incubated at 200 µM in […]
(§3) Aliquots were drawn at the
(§4) Gels were run at constant voltage […]
(§5) concentration was 200 µM. The results from densitometric analysis were plotted in Graphpad […]
(§6) Data is represented as mean ± SD of three independent experiments. […]

[2] = target: T1, Sa.ClpP; experiment: beta-casein degradation by Sa.ClpP, SDS-PAGE; type: biochemical, S. aureus; settings: ligands at 200 µM, ADEP2 at 10 µM, ClpP 1.0 µM, 24 h at 37 °C, Fig. 4A
Protocol: as §1, §2, §3, §4, §5, §6

[3] = target: T1, Sa.ClpP; experiment: Thermal shift assay (differential scanning fluorimetry); type: binding; settings: S. aureus ClpP 5 µM, ligand 200 µM, HEPES 100 mM pH 7, NaCl 150 mM, sypro orange 5x, 30-90 °C in 0.5 °C increments; mean ± SD of duplicates of at least two independent experiments
Description: All concentrations are given as final concentrations. […]
real-time qPCR (Bio-Rad CF X96).
SD of duplicates of at least two independent experiments.
equilibrated Superdex 200 Increase 10/300 GL column (Cytiva). […]

[4] = target: T1, Sa.ClpP; experiment: FtsZ degradation by Sa.ClpP, SDS-PAGE; type: biochemical, S. aureus; settings: 200 µM, ADEP2 at 10 µM, Sa. FtsZ 4.0 µM, 24 h, SDS-PAGE densitometry, at least three independent experiments, Fig. 4D
Description: Lastly, we set out to answer to what extent ADEP and other allosteric activators of ClpP resemble the activation process of ClpX. To this end, we set up a biochemical assay and monitored the digestion of FtsZ, an essential protein for cell division, which is the major determinant for the filamentation phenotype induced by ADEP-activated ClpP.[17] […] We performed docking studies of the identified macrocycles into the same pocket where ADEP binds (see ESI ^† for full details).
(§7) Walther et al. Supporting Information
FITC casein degradation rate
(§8) All concentrations are given as final concentrations. Ligands were incubated at 200 µM in the […]
The linear part of the fluorescence curve was used to determine the relative degradation rate. Data analysis was performed by OriginPro […]
as §1, §2, §3, §4, §5
Data is represented as mean ± SD of three independent experiments.
FtsZ degradation by Sa.ClpP […]
at a final concentration of 4.0 µM. […]
casein degradation assay. […]
SD of duplicates of at least two independent experiments. […]
equilibrated Superdex 200 Increase 10/300 GL column (Cytiva). Stabilization of Sa.ClpP in […]

[5] = FITC-casein fluorescence with/without Ec.ClpP (false-positive control); settings: 200 µM, with vs without Ec.ClpP, 24 h at 37 °C, Fig. S2
Protocol: as §7
Protein purification and isolation […]
expressed in E. coli C41 (DE3) cells. A single colony was incubated overnight in 2xYT media containing ampicillin (0.1 mg/mL) at 37 °C. Subsequently 10 mL of the overnight inoculum was […]
applied to a Ni-NTA affinity column (GE Healthcare). The column was washed with an increasing […]
Protein containing fraction
10 mM MgCl2, glycerol 10 % (v/v)). The pure protein sample was obtained after size exclusion […]
0.5 mM EDTA, 100 mM KCl, 10 % glycerol).
After 18 hours of growth at 25 °C, cells […]
mM Tris-HCl, 1 mM EDTA, pH 8).
Here, the protein was eluted with an isocratic gradient of buffer containing 50 mM biotin. Protein was concentrated and buffer […]
stocks were stored in storage buffer at -20 °C. For long term storage, samples were stored at -80 […]
FITC casein degradation screen
as §8
samples is subtracted from all samples.

[6] = system: Ec.ClpP; settings: 200 µM ligand, ClpP 1.0 µM, 24 h at 37 °C, SDS-PAGE densitometry, at least three independent experiments, Fig. 3D
Protocol: presence of E. coli ClpP or S. aureus ClpP (1.0 µM), and bovine beta-casein (Sigma-Aldrich –
catalogue number C6905, 5.0 µM or 3 µM) in Tris HCl buffer (100 mM, pH 7.6) with KCl (100 mM)
or HEPES buffer (100 mM, pH 7) with NaCl (150 mM) at 37 °C. Aliquots were drawn at the
indicated time points, quenched with SDS-loading buffer and heated to 90 °C for 5 min. Beta-
casein digestion was visualized by non-reducing Tris-glycine SDS-PAGE with 12 % acrylamide
and 4 % stacking gel or reducing Bolt 4-12% Bis-Tris Plus gels. Gels were run at constant voltage
(160-200 V) for 60 min and visualized with Coomassie brilliant blue dye. Protein bands were
quantified by densitometry using ImageJ from at least three independent experiments.
A two-fold dilution series in DMSO was performed to keep DMSO content identical. Highest
Prism and a non-linear fit was applied to estimate the EC50. Data is represented as mean ± SD of three independent experiments.

[7] = system: Ec.ClpP; settings: 200 µM peptide, E. coli ClpP 0.5 µM, FITC-casein 1.8 µM + beta-bovine casein 4.8 µM, Tris HCl 100 mM pH 7.6, KCl 100 mM, 24 h at 37 °C, exc. 483 nm, em 530 nm; duplicates of at least two independent experiments; vs DMSO
Protocol: Next, we screened for enzymatic activation of ClpP to quickly assess the chemical library for binding and understand whether IGF-bearing macrocyclic peptides could modulate ClpP enzymatic function. Modulation of ClpP was assessed using a biochemical assay monitoring the enzymatic function of the protease based on previously reported successes for the identification of allosteric activators of ClpP.[9] […] FITC-casein, a protein labeled with fluorescein to the extent of self-quenching, is a suitable substrate for this assay, as it can only enter the proteolytic core upon apical pore opening and is indirectly a measure for the conformational state of the protease.[2,10] Enzymatic degradation of FITC-casein alleviates self-quenching giving rise to an increased fluorescence intensity and an easy readout for our purpose to identify any ligand that positively modulates the enzymatic activity of recombinant E. coli ClpP (Ec.ClpP).
Ec.ClpP was incubated for 24 h at 37 °C in the presence of a peptide library, or vehicle (DMSO) and fluorescence intensity was measured thereafter (Fig. 2C and S1 ^†). […] This was reproducibly confirmed in three independent experiments (varying the batch of enzyme).

[8] = system: ClpP; settings: in words, through another mechanism; cited from earlier work
Protocol: Modulation of ClpP was assessed using a biochemical assay monitoring the enzymatic function of the protease based on previously reported successes for the identification of allosteric activators of ClpP.[9]

[9] = target: T1, Sa.ClpP; experiment: Gel filtration (SEC) of ClpP oligomeric state; set-up: species or system S. aureus; settings: Sa.ClpP 1 mg/mL, ligand 200 µM, destabilizing buffer Tris-HCl 100 mM pH 7.6, 100 mM KCl, overnight at 32 °C; Superdex 200

| Structure (SMILES) | EC50 [1] [µM] | activation of Sa.ClpP (beta-casein digestion) [2] | apparent increase in melting temperature of Sa.ClpP [3] [°C] | Sa.ClpP-dependent Sa.FtsZ digestion [4] | fluorescence signal in presence or absence of Ec.ClpP (false-positive check) [5] | Ec.ClpP-dependent beta-casein digestion [6] | increase in fluorescence intensity / enzymatic activation of Ec.ClpP (FITC-casein) [7] | effect on enzymatic function of ClpP homologues [8] | stabilization/retention of tetradecameric Sa.ClpP [9] |
| --- | --- | --- | --- | --- | --- | --- | --- | --- | --- |
| CC[C@H](C)[C@@H]1NC(=O)CNC(=O)[C@@H](NC(C)=O)CSCC(=O)CSC[C@@H](C(N)=O)NC(=O)CNC(=O)[C@H](Cc2ccccc2)NC(=O)CNC1=O [P4-B] | > 100 | able to activate the enzymatic function of Sa.ClpP | 0.6 ± 0.2 | also induced the digestion of FtsZ, yet less efficiently | did not exhibit this behaviour | control of Ec.ClpP function was confirmed by SDS-PAGE analysis of beta-casein digestion | significant increase of fluorescence intensity over the DMSO-treated sample | – | – |
| CC(C)C[C@H](NC(=O)[C@H](Cc1ccccc1)NC(=O)c1cnccn1)B(O)O [bortezomib] | – | – | – | – | – | – | – | able to increase enzymatic function of ClpP homologues | – |
| CCCC/C=C/C(=O)N[C@@H](Cc1cc(F)cc(F)c1)C(=O)OC [compound 2, reference compound] | – | – | – | activated Sa.ClpP, and FtsZ was digested | – | – | – | – | able to retain the tetradecamer in Tris-HCl; also recorded: able to rescue and stabilize the tetradecameric structure of Sa.ClpP |
